Experimental data as given in US20170226518A1, “COMPOSITIONS AND METHODS FOR TREATING CANCER” (Autotelic LLC, priority 2016, published 2017).

Columns and labels:
WiDr colon cancer cells = test: Cellular proliferation of WiDr colon cancer cells in vitro; format: cell-based; details: treatment on day 1 for 5 h only, ca.
Text: (§1) The aim of the study was to determine the effect of AP12009 (trabedersen) treatment in combination with 5-Fluorouracil (5-FU) on TGFβ2 secretion and on cellular proliferation of HUP-T3 pancreatic cancer cells and WiDr colon cancer cells in vitro.

TGFβ2 [1] = test: TGFβ2 secretion/expression in WiDr colon cancer cells; format: cell-based; details: ca.
Text: as §1

TGFβ2 [2] = test: TGFβ2 secretion/expression in HUP-T3 pancreatic cancer cells; format: cell-based; details: ca.
Procedure: as §1
(§2) 10 μM of AP12009 as monotherapy decreased cell proliferation (53% proliferation of untreated control) and TGFβ2 expression (42% of untreated control) in HUP-T3 cells.

[3] = system: HUP-T3 pancreatic cancer cells; test: Cellular proliferation of HUP-T3 pancreatic cancer cells in vitro; format: cell-based; details: treatment on day 1 for 5 h, measured after 7 days
Procedure: as §1, §2

[4] = system: C8161 human melanoma cells; test: C8161 melanoma xenograft model: tumor growth and survival; details: for Tumor growth suppressed relative to control group 1: day 42
Procedure: Sixty female athymic nude mice were intradermally inoculated with C8161 human melanoma cells and randomized into six groups of 10 mice. Three groups received monotherapy treatment with either OT-101 (trabedersen) (16 mg/kg) (Group 2) or Dacarbazine (DTIC; 1 or 10 mg/kg; Groups 3, 4). Two groups received combination therapy with OT-101/DTIC at 16/1 mg/kg or 16/10 mg/kg (Groups 5 and 6). Vehicle (0.9% saline, Groups 1, 3, and 4) and OT-101 were administered 3 times/week via subcutaneous injection. Vehicle (0.9% saline, Groups 1 and 2) and DTIC (1 or 10 mg/kg) were administered via intraperitoneal injection four times/week. All OT-101/Trabedersen treatments commenced at day 0 of the study and all DTIC treatments commenced on day 14. Mice were monitored for adverse effects, body weight and tumor size three times weekly. The tumor, lungs, liver and kidneys were excised from all mice at termination and weighed.

Row | Compound | 5-FU concentrations that concentration-dependently reduced cell proliferation (WiDr colon cancer cells) | 5-FU concentrations at which TGFβ2 was suppressed (TGFβ2 [1]) | 5-FU concentrations at which TGFβ2 was suppressed (TGFβ2 [2]) | 5-FU concentrations that dose-dependently reduced cell proliferation [3] | Tumor growth suppressed relative to control group 1 ([4]; group 3: DTIC 1 mg/kg i.p. four times/week from day 14) | Tumor growth suppressed relative to control group 1 ([4]; group 4: DTIC 10 mg/kg i.p. four times/week from day 14) | median survival ([4]; group 3: DTIC 1 mg/kg) | median survival ([4]; group 4: DTIC 10 mg/kg)
1 | O=c1[nH]cc(F)c(=O)[nH]1 [5-FU, 5-Fluorouracil, reference compound] | > 38 µM | > 75 µM | > 75 µM | > 10 µM | – | – | – | –
2 | CN(C)/N=N/c1[nH]cnc1C(N)=O [DTIC, Dacarbazine] | – | – | – | – | −2% | 78% | 47 days | 60 days
